Data: patent US4960678A, “Photochromic compounds” (Tokuyama Soda Kabushiki Kaisha, priority 1987, dated 1990)

Legend:
Type in all cases: physicochemical
[1] = Xenon long-life fadeometer test of photochromic poly(methyl methacrylate) cast film (initial coloration density, T1/2, λmax), Example 9; conditions: poly(methyl methacrylate) cast film 0.1 mm; for Initial color density: initial coloration density (absorbance); for Initial color density / T1/2 (fatigue life): xenon fadeometer; for λmax: maximum absorption wavelength; for T1/2 (fatigue life): time for color density to decrease to half of initial value;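 for Initial color density: 0.5 part by weight compound dispersed with PMMA in 100 parts benzene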
Source text: The thickness of the cast film was adjusted to 0.1 mm.
(§1) T1/2 is defined as the time required for the color density to decrease to half of its initial value when the film is exposed to the fadeometer.

[2] = Fading speed of poly(methyl methacrylate) cast film after mercury lamp irradiation, Example 9; conditions: mercury lamp 60 seconds at 20°±1° C., time to half absorbance after irradiation stopped
Method: The fading speeds of the cast films prepared as above were measured by the following procedure.
The cast film was exposed to a mercury lamp (SHL-100 made by Toshiba Co., Ltd.) at 20°±1° C. for 60 seconds from a distance of 10 cm. Then, the irradiation was stopped, and the fading speed was determined from changes in the absorbance of the cast film measured by a spectrophotometer (220A made by Hitachi Limited). The fading speed is expressed by the time which is required to the absorbance of the cast film to a value half of (the absorbance of the cast film at a maximum absorption wavelength immediately after 60 second irradiation)--(the absorbance of the non-irradiated cast film at the maximum wavelength) after light irradiation for 60 seconds.

[3] = Durability test of poly(allyl diglycol carbonate) lens impregnated with compound in silicone oil, Example 10; conditions: for Initial color density / λmax: impregnated from silicone oil; for T1/2: impregnated from silicone oil at 200° C. for 1 hour, xenon fadeometer
Method: as §1
The solution was impregnated in the surface of a lens composed of poly(allyl diglycol carbonate) at 200° C. for 1 hour. The concentration of the solution was adjusted to 1.0×10^-4 mole/g.

[4] = Fatigue life of films of fulgimide or fulgide compounds with Cyasorb UV1084, Example 14; conditions: with Cyasorb UV1084 (0.2 part) as ultraviolet stabilizer in poly(methyl methacrylate) film; xenon fadeometer
[5] = Fatigue life of film of fulgimide compound obtained in Example 1 with ultraviolet stabilizer, Example 11; conditions: fulgimide compound obtained in Example 1 (0.2 part) with 0.2 part ultraviolet stabilizer in poly(methyl methacrylate) film; xenon fadeometer
Source text: as §1
(§2) One hundred parts of benzene, 10 parts of poly(methyl methacrylate), 0.2 part of the fulgimide compound obtained in Example 1 and 0.2 part of each of the compounds shown in Table 5 as an ultraviolet stabilizer were mixed to form a solution. The solution was cast on a slide glass (11.2×3.7cm) to form a cast film having a thickness of 0.1 mm.
(§3) The fatigue life of photochromic film was measured as in Example 9 by a xenon long-life fadeometer (FAL-25AX-HC made by Suga Testing Instrument Co., Ltd.).

[6] = Fatigue life of film of fulgimide compound obtained in Example 2 with ultraviolet stabilizer, Example 12; conditions: fulgimide compound obtained in Example 2 (0.2 part) with 0.2 part ultraviolet stabilizer in poly(methyl methacrylate) film; xenon fadeometer
Method: as §2, §3
Example 11 was repeated except that the fulgimide compound obtained in Example 2 was used instead of fulgimide compound used in Example 11.

[7] = Fatigue life of film of fulgimide compound obtained in Example 1 with varied amounts of ultraviolet stabilizer, Example 13; conditions: fulgimide compound of Example 1
Method: […] The solution was cast on a slide glass (11.2×3.7cm) to form a cast film having a thickness of 0.1 mm.
as §3

[8] = stabilizer amount added 0.002 (1 part per 100 parts by weight of fulgimide)
[9] = stabilizer amount added 0.1 (50 parts per 100 parts by weight of fulgimide)
[10] = stabilizer amount added 0.8 (400 parts per 100 parts by weight of fulgimide)
[11] = stabilizer amount added 20 (10000 parts per 100 parts by weight of fulgimide)

Initial color density [1]	λmax [1]	T1/2 (fatigue life) [1]	Structure (SMILES)	further results
0.83	553 nm	46 h	CC1=C2C(=O)N(CC#N)C(=O)C2C2(c3sccc31)C1CC3CC(C1)CC2C3 (stereo not shown) [(2)]	Fading speed [2]: 26 s; Initial color density [3]: 0.64; λmax [3]: 562 nm; T1/2 [3]: 50 h; T1/2 [4]: 182 h
0.42	535 nm	13 h	CC1=C2C(=O)N(CCc3ccc4ccccc4c3)C(=O)C2C2(CC3CCC2C3)c2sc(Br)cc21 (stereo not shown) [(3)]	Fading speed [2]: 71 s; T1/2 [4]: 77 h
0.38	520 nm	15 h	CC1=C2C(=O)OC(=O)C2C2(CC3CCC2C3)c2sc(Br)cc21 (stereo not shown) [(7)]	Fading speed [2]: 21 s
0.61	525 nm	39 h	CNC(=O)CN1C(=O)C2=C(C)c3cc([N+](=O)[O-])sc3C3(C4CC5CC(C4)CC3C5)C2C1=O (stereo not shown) [(11)]	–
0.79	560 nm	31 h	COC(=O)C(C)N1C(=O)C2=C(c3ccccc3)c3ccoc3C3(C4CC5CC3CC(Cl)(C5)C4)C2C1=O (stereo not shown) [(12)]	T1/2 [4]: 160 h
0.82	490 nm	42 h	COC12CC3CC(C1)C1(c4oc5ccccc5c4C(C)=C4C(=O)N(CC(=O)OC(C)(C)CCC#N)C(=O)C41)C(C3)C2 (stereo not shown) [(14)]	Initial color density [3]: 0.63; λmax [3]: 500 nm; T1/2 [3]: 42 h
0.84	492 nm	31 h	COCCOCN1C(=O)C2=C(C)c3c(oc4ccccc34)C3(C4CC5CC(F)(C4)CC3(F)C5)C2C1=O (stereo not shown) [(16)]	–
0.52	519 nm	41 h	CCC1=C2C(=O)N(CC(=O)CCC(=O)CCl)C(=O)C2C2(c3c1sc1ccccc31)C1(F)C(F)(F)C3(F)C(F)(F)C(F)(C1(F)F)C(F)(F)C2(F)C3(F)F (stereo not shown) [(18)]	–
0.52	576 nm	36 h	CCCCC1=C2C(=O)N(CC(C)(C)CCOC(=O)CBr)C(=O)C2C2(CC3CCC2C3(C)C)c2sc3c(c21)CCCC3 (stereo not shown) [(21)]	–
0.49	546 nm	12 h	CCn1c2c(c3ccccc31)C(C)=C1C(=O)OC(=O)C1C21C2CCC(C2)C1(C)C (stereo not shown) [(94)]	–

More lines, now with the values behind:

Structure (SMILES)	Initial color density [1]	λmax [1]	T1/2 (fatigue life) [1]	further results
COC(=O)CN1C(=O)C2=C(C)c3ccsc3C3(C4CC5CC(C4)CC3C5)C2C1=O (stereo not shown) [(1)]	0.62	535 nm	38 h	Fading speed [2]: 39 s; Initial color density [3]: 0.5; λmax [3]: 540 nm; T1/2 [3]: 40 h
CCC(C(=O)OCCc1ccc2ccccc2c1)N1C(=O)C2=C(C)c3ccsc3C3(C4CC5CC(C4)CC3C5)C2C1=O (stereo not shown) [(5)]	0.51	520 nm	24 h	Fading speed [2]: 58 s; Initial color density [3]: 0.4; λmax [3]: 520 nm; T1/2 [3]: 31 h
CC1=C2C(=O)N(CCCCC(=O)OCCc3cccc4ccccc34)C(=O)C2C2(c3sccc31)C1CC3CC(C1)CC2C3 (stereo not shown) [(6)]	0.49	538 nm	16 h	Fading speed [2]: 76 s; T1/2 [4]: 65 h
CC1=C2C(=O)N(C[N+](=O)[O-])C(=O)C2C2(c3sc(C)cc31)C1CC3CC(C1)CC2C3 (stereo not shown) [(8)]	0.72	556 nm	30 h	Initial color density [3]: 0.56; λmax [3]: 562 nm; T1/2 [3]: 32 h
COc1ccc2c3c(sc2c1)C1(C2CC4CC(C2)CC1C4)C1C(=O)N(CCl)C(=O)C1=C3C (stereo not shown) [(9)]	0.59	542 nm	30 h	–
CC(=O)CN1C(=O)C2=C(c3ccccc3)c3cc(-c4ccccc4)sc3C3(C4CC5CC(C4)CC3C5)C2C1=O (stereo not shown) [(10)]	0.58	601 nm	40 h	Initial color density [3]: 0.47; λmax [3]: 610 nm; T1/2 [3]: 43 h
CCCCC12CC3CC(C1)C1(c4c(OC)cc(OC)cc4C(c4ccccc4)=C4C(=O)N(C(C)(C)C#N)C(=O)C41)C(C3)C2 (stereo not shown) [(17)]	0.49	550 nm	48 h	T1/2 [4]: 188 h
CC1=C2C(=O)N(CC(=O)OCC(C)C)C(=O)C2C2(CC3CCC2C3)c2sc(Br)cc21 (stereo not shown) [(19)]	0.47	520 nm	43 h	–
CC1=C2C(=O)N(CC#N)C(=O)C2C2(c3occc31)C1CC3CC(C1)CC2C3 (stereo not shown) [(28)]	0.9	535 nm	48 h	Initial color density [3]: 0.72; λmax [3]: 540 nm; T1/2 [3]: 49 h
CCCCC12CC3CC(C1)C1(c4c(n(C)c5ccccc45)C(C)=C4C(=O)N(CC(=O)OCCC#N)C(=O)C41)C(Cl)(C3)C2 (stereo not shown) [(29)]	0.71	576 nm	44 h	Initial color density [3]: 0.56; λmax [3]: 583 nm; T1/2 [3]: 45 h
CC1=C2C(=O)OC(=O)C2C2(CC3CCC2(C)C3(C)C)c2sc(C)cc21 (stereo not shown) [(95)]	0.53	540 nm	11 h	–
CC1=C2C(=O)N(c3ccccc3)C(=O)C2C2(CC3CCC2C3)c2sc(Br)cc21 (stereo not shown) [(97)]	0.31	506 nm	8 h	–
CC1=C2C(=O)N(c3ccc(C)cc3)C(=O)C2C2(CC3CCC2C3)c2sc3ccccc3c21 (stereo not shown) [(98)]	–	513 nm	11 h	–
CCN1C(=O)C2=C(C)c3cc(OC)c(OC)c(OC)c3C3(CC4CCC3C4)C2C1=O (stereo not shown) [(99)]	0.24	510 nm	8 h	–
CCN1C(=O)C2=C(C)c3ccsc3C3(C4CC5CC(C4)CC3C5)C2C1=O (stereo not shown) [(X), reference compound]	0.7	530 nm	3 h	–
CC(C)(C)CC(C)(C)c1ccc([O-])c(Sc2cc(C(C)(C)CC(C)(C)C)ccc2[O-])c1.CCCCN.[Ni+2] [Cyasorb UV1084]	–	–	–	T1/2 [5]: 152 h; T1/2 [6]: 182 h; T1/2 [7, 8]: 110 h; T1/2 [7, 9]: 140 h; T1/2 [7, 10]: 160 h; T1/2 [7, 11]: 180 h
CCOP(=O)([O-])Cc1cc(C(C)(C)C)c(O)c(C(C)(C)C)c1.CCOP(=O)([O-])Cc1cc(C(C)(C)C)c(O)c(C(C)(C)C)c1.[Ni+2] [Irgastab 2002]	–	–	–	T1/2 [5]: 147 h; T1/2 [6]: 176 h
CCCCN(CCCC)C(=S)[S-].CCCCN(CCCC)C(=S)[S-].[Ni+2] [Rylex NBC]	–	–	–	T1/2 [5]: 158 h; T1/2 [6]: 190 h
CCCCC(Cc1cc(C(C)(C)C)c(O)c(C(C)(C)C)c1)(C(=O)OC1CC(C)(C)N(C)C(C)(C)C1)C(=O)OC1CC(C)(C)N(C)C(C)(C)C1 [Tinuvin 144]	–	–	–	T1/2 [5]: 152 h; T1/2 [6]: 182 h
CN1C(C)(C)CC(OC(=O)CCCCCCCCC(=O)OC2CC(C)(C)N(C)C(C)(C)C2)CC1(C)C [Tinuvin 765]	–	–	–	T1/2 [5]: 159 h; T1/2 [6]: 191 h; T1/2 [7, 8]: 106 h; T1/2 [7, 9]: 152 h; T1/2 [7, 10]: 166 h; T1/2 [7, 11]: 182 h
